Results on three compounds are retold here after US12409160B1, “Compositions and methods for treatment of peri-implantitis and periodontitis” (Cusp Biosciences, Inc., priority 2025, dated 2025).

Series [1] concerns hPDLF / CD14+ monocyte co-culture. As to the kind of experiment: TRAP-positive multinucleated osteoclasts on bone slices after seven-day co-culture. It is filed as cell-based, human. The protocol:
Culture primary human periodontal-ligament fibroblasts (hPDLFs) and autologous CD14^+ monocytes in a trans-well co-culture that recapitulates the paracrine crosstalk driving osteoclastogenesis. […] At 48 h collect supernatants and lysates.
• a. […] Secondary Read-Outs: • a.

Series [2] relates to RAW 264.7 pre-osteoclasts. As to the kind of experiment: Osteoclastogenesis: hPDLC medium on RAW 264.7 pre-osteoclasts, TRAP staining. In kind it is cell-based.
Series [3] relates to human periodontal ligament cells (hPDLCs). As to the kind of experiment: IL-1β and TNF-α in supernatant (ELISA) of LPS-challenged hPDLCs under CoCl2. In kind it is cell-based. Particulars: 2 μM simvastatin, LPS 1 μg/ml, vs LPS-Veh. A general note: In an ELISA, binding on a coated surface is turned into a signal by an enzyme label.
In series [4] the test system is human periodontal-ligament fibroblasts (hPDLFs) and CD14+ monocytes. As to the kind of experiment: hPDLF / CD14+ monocyte trans-well co-culture, ELISA of supernatants. In kind it is cell-based. The method, then:
Culture primary human periodontal-ligament fibroblasts ([…]) and autologous CD14^+ monocytes in a trans-well co-culture that recapitulates the paracrine crosstalk driving osteoclastogenesis. After 24 h equilibration, expose triplicate wells to: (i) vehicle (0.1% DMSO); […] At 48 h collect supernatants and lysates. • a. […] Secondary Read-Outs: • a.

Series [5] relates to human periodontal ligament cells (hPDLCs). As to the kind of experiment: Cell viability (MTT) of hPDLCs. It is filed as cell-based. The following applies: Day 1 (24 h).
The conditions of series [6]: cited from earlier work.
A further series has as its system hPDLF monolayers. As to the kind of experiment: Scratch-wound closure in hPDLF monolayers. In kind it is cell-based, human. Particulars: over 24 h after treatment.

A value given as a limit tells only on which side of the number the result lay.

In the case of `COC(=O)CNC(=O)C(=O)OC` [DMOG], the “effect on osteoclast formation” value in series [1] (DMOG 1 mM) is “increases”.
As for `CCC(C)(C)C(=O)O[C@H]1C[C@@H](C)C=C2C=C[C@H](C)[C@H](CC[C@@H]3C[C@@H](O)CC(=O)O3)[C@H]21` [SIMV, simvastatin], the “TRAP+ osteoclasts (cells per well)” value in series [2] (2 μM simvastatin) came out at 85 cells per well. For the same compound, in series [3], the “IL-1β (24 h), decrease (↓)” value is “↓ 25%” and the “TNF-α (24 h), decrease (↓)” value was “↓ 20%”.
On to `CS(=O)(=O)c1ccc(Oc2cc(F)cc(C#N)c2)c2c1[C@H](O)[C@H](F)[C@@H]2F` [Belzutifan, belzutifan], for which, in series [4] (ELISA at 48 h, belzutifan 0.1, 1, 10 nM), the “cut of RANKL and pro-inflammatory cytokines versus vehicle” value was ≥ 70%. In addition, the “VEGF preserved, of VEGF seen in vehicle” value in series [4] (VEGF-A secretion, 48 h) is listed as ≥ 80%. Further, the “Viability (% of No-Stim)” value in series [5] is listed as > 90%. Also, the “reduction in osteoclast formation” value in series [2] (at 1%) is reported as ≥ 65%. In addition, the “solubility in DMSO” value in series [6] (DMSO, 25° C.) is “≈ 77 mg mL-1”. In series [6] (ethanol), the solubility in ethanol entry is reported as “sparingly soluble”. Moreover, in series [6] (water across pH 1-8), the solubility in water entry is “practically insoluble”. Moreover, in the series on hPDLF monolayers, the scratch-wound closure kinetics result was “retain normal closure kinetics”. In addition, the “cut of osteoclast formation” value in series [1] (at 1 nM) was > 60%.
